Series [1] is described as follows: MRT in Sprague-Dawley rat at 20 mg/kg, po measured upto 12 hrs by LC-MS/MS analysis. Format: ADME, organism-based. Conditions: in vivo.
In series [2] the test system is MDA-MB-231. The experiment in a line: Induction of apoptosis in human MDA-MB-231 cells assessed as late apoptotic cells at 5 uM incubated for 72 hrs by annexinV-FITC and PI staining based flow cytometry analysis (reference value: 3.79 %). Format: functional.
Series [3] has as its system 4T1. The experiment in a line: Antitumor activity against mouse 4T1 cells xenografted in BALB/c mouse assessed as tumor growth inhibition at 50 mg/kg, po administered for 22 days and measured on day 22. The class given is functional, organism-based. Conditions: time 22.0 day.
The target in a further series is Histone deacetylase 5 (Homo sapiens, UniProt Q9UQL6). The experiment in a line: Inhibition of recombinant human N-terminal GST-tagged HDAC-5 (617 to end residues) expressed in baculovirus infected in Sf9 cells at 10 uM using Boc-Lys (q-Ac)-AMC as substrate incubated for 10 mins followed by substrate addition and measured after 30 mins by fluorescence based assay relative to control. Conditions: time 40.0 min.

Another series relates to SUM-159-PT. The experiment in a line: Cytotoxicity against human SUM159PT cells assessed as reduction in cell viability incubated for 48 hrs by MTT assay. The class given is functional, cell-based. For orientation: Tetrazolium dyes change colour on reduction, which living cells bring about.
For series [4], the system named is 4T1. Kind of series: Cytotoxicity against mouse 4T1 cells assessed as reduction in cell viability incubated for 48 hrs by MTT assay. Format: functional, cell-based. Conditions: 4T1, 48 h.
In another series the target is Histone deacetylase 11 (Homo sapiens, UniProt Q96DB2). Kind of series: Inhibition of recombinant human N-terminal GST-tagged full length HDAC-11 expressed in baculovirus infected in Sf9 cells using Boc-Lys (q-Ac)-AMC as substrate incubated for 10 mins followed by substrate addition and measured after 30 mins by fluorescence based assay.
For series [5], the system named is MDA-MB-231. The experiment in a line: Cytotoxicity against human MDA-MB-231 cells assessed as reduction in cell viability incubated for 48 hrs by MTT assay. Conditions: MDA-MB-231, 48 h. The class given is functional, cell-based.
For series [6], the system named is MDA-MB-231. Kind of series: Induction of apoptosis in human MDA-MB-231 cells assessed as viable cells at 5 uM incubated for 72 hrs by annexinV-FITC and PI staining based flow cytometry analysis (reference value: 90.3 %). Conditions: read-out: Activity. Format: functional.
A short description of series [7]: Half life in Sprague-Dawley rat at 20 mg/kg, po measured upto 12 hrs by LC-MS/MS analysis. Conditions: in vivo. The class given is ADME, organism-based.
Series [8] has as its system 4T1. Kind of series: Induction of cell cycle arrest in mouse 4T1 cells assessed as G0/G1 phase accumulation at 2 uM incubated for 24 hrs by PI staining based flow cytometry analysis (reference value: 42.06 %). Format: functional. Background: In flow cytometry, cells or beads pass a laser one at a time.
A short description of series [9]: Toxicity in BALB/c mouse xenografted with mouse 4T1 cells assessed as effect on body weight at 50 mg/kg, po administered for 22 days and measured on day 22. Conditions: in vivo, 528 h, time 22 day. The class given is organism-based.

The structures appear in SMILES notation. pIC50: −log10 of the molar value. Active and inactive are the calls of the source. No cut-off for these calls is given here.

A word on the MRT: it is the average time that molecules of a dose stay in the body. In general, inhibition refers to the drop in the measured response relative to a control, in per cent. A word on the pIC50: it is the IC50 on a negative log10 scale, so that one unit is a factor of ten. As a reminder, the half-life is the time in which the quantity being followed falls by half. Higher therefore signals slow decline.

Histone deacetylase 5, sequence (Q9UQL6 whole entry): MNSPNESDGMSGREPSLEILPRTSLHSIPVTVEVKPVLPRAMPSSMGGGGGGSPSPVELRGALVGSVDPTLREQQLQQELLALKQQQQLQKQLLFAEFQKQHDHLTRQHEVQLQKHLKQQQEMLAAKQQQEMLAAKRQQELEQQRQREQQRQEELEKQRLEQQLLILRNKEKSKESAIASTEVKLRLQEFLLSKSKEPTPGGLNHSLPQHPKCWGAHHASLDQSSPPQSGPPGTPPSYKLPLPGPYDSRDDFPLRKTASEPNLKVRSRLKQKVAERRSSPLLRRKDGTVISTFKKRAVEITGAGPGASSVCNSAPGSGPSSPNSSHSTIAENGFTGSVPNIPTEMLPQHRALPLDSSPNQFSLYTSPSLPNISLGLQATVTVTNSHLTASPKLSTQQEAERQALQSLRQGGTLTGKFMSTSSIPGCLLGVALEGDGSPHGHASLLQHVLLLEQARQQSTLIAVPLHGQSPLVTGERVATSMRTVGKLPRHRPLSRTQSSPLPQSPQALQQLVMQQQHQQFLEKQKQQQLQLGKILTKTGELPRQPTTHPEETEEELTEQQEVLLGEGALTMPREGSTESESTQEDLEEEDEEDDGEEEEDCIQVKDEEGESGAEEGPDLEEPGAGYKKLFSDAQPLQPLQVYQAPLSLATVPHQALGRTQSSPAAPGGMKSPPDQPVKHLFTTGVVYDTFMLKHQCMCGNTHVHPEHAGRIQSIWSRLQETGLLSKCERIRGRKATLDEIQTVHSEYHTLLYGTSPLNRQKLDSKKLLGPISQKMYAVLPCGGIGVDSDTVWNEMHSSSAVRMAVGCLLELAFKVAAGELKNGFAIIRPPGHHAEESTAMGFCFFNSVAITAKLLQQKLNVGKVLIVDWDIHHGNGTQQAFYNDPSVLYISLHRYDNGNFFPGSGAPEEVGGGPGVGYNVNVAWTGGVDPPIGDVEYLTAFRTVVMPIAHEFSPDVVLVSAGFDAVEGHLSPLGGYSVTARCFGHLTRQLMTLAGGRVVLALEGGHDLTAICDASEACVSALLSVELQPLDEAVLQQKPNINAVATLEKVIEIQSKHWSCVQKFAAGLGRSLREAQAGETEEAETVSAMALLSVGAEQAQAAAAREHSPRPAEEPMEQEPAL
Histone deacetylase 11, sequence (Q96DB2 whole entry): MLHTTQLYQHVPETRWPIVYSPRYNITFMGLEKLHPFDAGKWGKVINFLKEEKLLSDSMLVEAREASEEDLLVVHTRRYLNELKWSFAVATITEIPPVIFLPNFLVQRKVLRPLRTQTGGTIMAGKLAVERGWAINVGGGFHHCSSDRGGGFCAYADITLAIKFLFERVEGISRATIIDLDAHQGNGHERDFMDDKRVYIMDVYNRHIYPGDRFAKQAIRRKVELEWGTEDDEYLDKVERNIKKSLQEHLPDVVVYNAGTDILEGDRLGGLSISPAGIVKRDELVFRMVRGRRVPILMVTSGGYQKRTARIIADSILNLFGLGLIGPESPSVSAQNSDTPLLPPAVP

For `CN(C)CCOc1ccc(-c2cc(=O)c3c(O)cc(OCCCCCC(=O)NO)cc3o2)cc1.Cl`, the MRT in series [1] stood at 65.8 min. Also, the Activity was 27.2% in the series with MDA-MB-231 [2], 62.91% in the series with 4T1 [8] and “Non-Toxic” in [9]. Also, the TGI result in the series with 4T1 [3] is “Active”. Moreover, the inhibition on Histone deacetylase 5 was 38%. The pIC50 with SUM-159-PT was 6.56; in the series on 4T1 [4] it was 5.70; at Histone deacetylase 11 it was 6.75; with MDA-MB-231 [5], 5.69. For the same compound, the viability at 5 µM with MDA-MB-231 [6] is 17.2%. Also, the half-life in [7] is 14.9 min.

Source of the values: ChEMBL document CHEMBL4765432, “Design and synthesis of novel Flavone-based histone deacetylase inhibitors antagonizing activation of STAT3 in breast cancer” (Eur J Med Chem, 2020).
